According to the supplement of paper PMC10307832:

What was measured:
Assay in all cases: relative viability (nuclei count vs DMSO), 5 days (fraction); higher = more cells survive
COR-L23 = test system: COR-L23
Method in brief: (§1)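 Relative viability divides the nuclei count in treated wells by that in vehicle wells. Lung cancer cell lines were seeded in 1536-well plates, dosed by pin tool the next day, and fixed and stained after 5 days in one step with final 0.05% Triton X-100, 1% formaldehyde and 1 ug/ml Hoechst. Dosing was a single drug or a fixed anchor-drug dose plus five library-drug doses (not always all listed) in √10 steps, and values are medians of duplicate plates imaged at 4×.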

EMC-BAC-2 = test system: EMC-BAC-2
Method in brief: as §1

HARA = test system: HARA
Method in brief: as §1

NCI-H2405 = test system: NCI-H2405
Method in brief: as §1

UMC-11 = test system: UMC-11
Method in brief: as §1

ChaGo-K-1 = test system: ChaGo-K-1
Method in brief: as §1

SK-LU-1 = test system: SK-LU-1
Method in brief: as §1

HCC-78 = test system: HCC-78
Method in brief: as §1

NCI-H1793 = test system: NCI-H1793
Method in brief: as §1

A-427 = test system: A-427
Method in brief: as §1

NCI-H2228 = test system: NCI-H2228
Method in brief: as §1

NCI-H1944 = test system: NCI-H1944
Method in brief: as §1

NCI-H23 = test system: NCI-H23
Method in brief: as §1

HCC-15 = test system: HCC-15
Method in brief: as §1

HCC-366 = test system: HCC-366
Method in brief: as §1

NCI-H2023 = test system: NCI-H2023
Method in brief: as §1

NCI-H1734 = test system: NCI-H1734
Method in brief: as §1

LC-2-ad = test system: LC-2-ad
Method in brief: as §1

NCI-H2009 = test system: NCI-H2009
Method in brief: as §1

NCI-H2126 = test system: NCI-H2126
Method in brief: as §1

NCI-H1993 = test system: NCI-H1993
Method in brief: as §1

NCI-H838 = test system: NCI-H838
Method in brief: as §1

Structure (SMILES): O=C(O)c1ccc(-c2c[nH]c3ncc(-c4ccccc4)cc23)cc1C1CCCC1 + Nc1nc2[nH]cc(CCc3ccc(C(=O)N[C@@H](CCC(=O)O)C(=O)O)cc3)c2c(=O)[nH]1 [Pemetrexed] (partner 0.2 µM)
- relative viability (COR-L23; first compound 0.04 µM): 0.191
- relative viability (COR-L23; first compound 0.1265 µM): 0.196
- relative viability (COR-L23; first compound 0.4 µM): 0.194
- relative viability (COR-L23; first compound 1.265 µM): 0.184
- relative viability (EMC-BAC-2; first compound 0.04 µM): 0.451
- relative viability (EMC-BAC-2; first compound 0.1265 µM): 0.465
- relative viability (EMC-BAC-2; first compound 0.4 µM): 0.479
- relative viability (EMC-BAC-2; first compound 1.265 µM): 0.451
- relative viability (HARA; first compound 0.04 µM): 0.23
- relative viability (HARA; first compound 0.1265 µM): 0.237
- relative viability (HARA; first compound 0.4 µM): 0.222
- relative viability (HARA; first compound 1.265 µM): 0.252
- relative viability (NCI-H2405; first compound 0.04 µM): 1.05
- relative viability (NCI-H2405; first compound 0.1265 µM): 1.15
- relative viability (NCI-H2405; first compound 0.4 µM): 0.959
- relative viability (NCI-H2405; first compound 1.265 µM): 0.648
- relative viability (UMC-11; first compound 0.04 µM): 0.703
- relative viability (UMC-11; first compound 0.1265 µM): 0.719
- relative viability (UMC-11; first compound 0.4 µM): 0.693
- relative viability (UMC-11; first compound 1.265 µM): 0.653
- relative viability (ChaGo-K-1; first compound 0.04 µM): 0.249
- relative viability (ChaGo-K-1; first compound 0.1265 µM): 0.255
- relative viability (ChaGo-K-1; first compound 0.4 µM): 0.265
- relative viability (ChaGo-K-1; first compound 1.265 µM): 0.264
- relative viability (SK-LU-1; first compound 0.04 µM): 0.909
- relative viability (SK-LU-1; first compound 0.1265 µM): 0.987
- relative viability (SK-LU-1; first compound 0.4 µM): 0.882
- relative viability (SK-LU-1; first compound 1.265 µM): 0.548
- relative viability (HCC-78; first compound 0.1265 µM): 0.919
- relative viability (HCC-78; first compound 0.4 µM): 0.881
- relative viability (HCC-78; first compound 1.265 µM): 0.962
- relative viability (NCI-H1793; first compound 0.04 µM): 0.83
- relative viability (NCI-H1793; first compound 0.1265 µM): 1.19
- relative viability (NCI-H1793; first compound 0.4 µM): 0.865
- relative viability (NCI-H1793; first compound 1.265 µM): 0.882
- relative viability (A-427; first compound 0.04 µM): 0.959
- relative viability (A-427; first compound 0.1265 µM): 1.06
- relative viability (A-427; first compound 0.4 µM): 0.943
- relative viability (A-427; first compound 1.265 µM): 0.843
- relative viability (NCI-H2228; first compound 0.04 µM): 0.349
- relative viability (NCI-H2228; first compound 0.1265 µM): 0.294
- relative viability (NCI-H2228; first compound 0.4 µM): 0.348
- relative viability (NCI-H2228; first compound 1.265 µM): 0.29
- relative viability (NCI-H1944; first compound 0.04 µM): 0.692
- relative viability (NCI-H1944; first compound 0.1265 µM): 0.799
- relative viability (NCI-H1944; first compound 0.4 µM): 0.69
- relative viability (NCI-H1944; first compound 1.265 µM): 0.565
- relative viability (NCI-H23; first compound 0.04 µM): 0.756
- relative viability (NCI-H23; first compound 0.1265 µM): 0.885
- relative viability (NCI-H23; first compound 0.4 µM): 0.683
- relative viability (NCI-H23; first compound 1.265 µM): 0.66
- relative viability (HCC-15; first compound 0.04 µM): 0.206
- relative viability (HCC-15; first compound 0.1265 µM): 0.227
- relative viability (HCC-15; first compound 0.4 µM): 0.215
- relative viability (HCC-15; first compound 1.265 µM): 0.188
- relative viability (HCC-366; first compound 0.04 µM): 0.178
- relative viability (HCC-366; first compound 0.1265 µM): 0.203
- relative viability (HCC-366; first compound 0.4 µM): 0.149
- relative viability (HCC-366; first compound 1.265 µM): 0.187
- relative viability (NCI-H2023; first compound 0.04 µM): 0.23
- relative viability (NCI-H2023; first compound 0.1265 µM): 0.271
- relative viability (NCI-H2023; first compound 0.4 µM): 0.28
- relative viability (NCI-H2023; first compound 1.265 µM): 0.237
- relative viability (NCI-H1734; first compound 0.04 µM): 0.413
- relative viability (NCI-H1734; first compound 0.1265 µM): 0.43
- relative viability (NCI-H1734; first compound 0.4 µM): 0.428
- relative viability (NCI-H1734; first compound 1.265 µM): 0.411
- relative viability (LC-2-ad; first compound 0.04 µM): 0.302
- relative viability (LC-2-ad; first compound 0.1265 µM): 0.272
- relative viability (LC-2-ad; first compound 0.4 µM): 0.278
- relative viability (LC-2-ad; first compound 1.265 µM): 0.261
- relative viability (NCI-H2009; first compound 0.04 µM): 1.03
- relative viability (NCI-H2009; first compound 0.1265 µM): 1.11
- relative viability (NCI-H2009; first compound 0.4 µM): 1.03
- relative viability (NCI-H2009; first compound 1.265 µM): 0.946
- relative viability (NCI-H2126; first compound 0.04 µM): 0.741
- relative viability (NCI-H2126; first compound 0.1265 µM): 0.66
- relative viability (NCI-H2126; first compound 0.4 µM): 0.707
- relative viability (NCI-H2126; first compound 1.265 µM): 0.666
- relative viability (NCI-H1993; first compound 0.04 µM): 0.603
- relative viability (NCI-H1993; first compound 0.1265 µM): 0.622
- relative viability (NCI-H1993; first compound 0.4 µM): 0.617
- relative viability (NCI-H1993; first compound 1.265 µM): 0.59
- relative viability (NCI-H838; first compound 0.04 µM): 0.25
- relative viability (NCI-H838; first compound 0.1265 µM): 0.265
- relative viability (NCI-H838; first compound 0.4 µM): 0.253
- relative viability (NCI-H838; first compound 1.265 µM): 0.227
